# ChEMBL document CHEMBL5257153, “Oxazolidinones as versatile scaffolds in medicinal chemistry” (RSC Med Chem, 2023)
# Columns and labels:
# [1] = test system: Mycobacterium tuberculosis; assay: Antimycobacterial activity against Mycobacterium tuberculosis H37Rv strain assessed as bacterial growth inhibition by Microplate amar blue assay; type: functional
# [2] = test system: HeLa; assay: Anticancer activity against human HeLa cells assessed as cell growth inhibition incubated for 72 hrs by MTT assay; type: functional, cell-based
# [3] = test system: MCF7; assay: Anticancer activity against human MCF7 cells assessed as cell growth inhibition incubated for 72 hrs by MTT assay; type: functional, cell-based; settings: MCF7, 72 h
# [4] = test system: SK-OV-3; assay: Anticancer activity against human SK-OV-3 cells assessed as cell growth inhibition incubated for 48 hrs by MTT assay; type: functional, cell-based; settings: SK-OV-3, 48 h
# [5] = test system: MGC-803; assay: Anticancer activity against human MGC-803 cells assessed as cell growth inhibition incubated for 48 hrs by MTT assay; type: functional, cell-based; settings: MGC-803, 48 h
# [6] = test system: NCI-H460; assay: Anticancer activity against human NCI-H460 cells assessed as cell growth inhibition incubated for 48 hrs by MTT assay; type: functional, cell-based; settings: NCI-H460, 48 h
# [7] = test system: CNE-2; assay: Anticancer activity against human CNE-2 cells assessed as cell growth inhibition incubated for 48 hrs by MTT assay; type: functional, cell-based; settings: CNE-2, 48 h
# [8] = test system: L02; assay: Cytotoxicity against human L02 cells assessed as cell growth inhibition incubated for 48 hrs by MTT assay; type: functional, cell-based; settings: L02, 48 h
# [9] = test system: Mycobacterium tuberculosis; assay: Antimycobacterial activity against Mycobacterium tuberculosis H37Rv strain assessed as bacterial growth inhibition incubated for 18 to 24 hrs; type: functional; settings: time 18-24 hrs
# [10] = test system: Mycobacterium tuberculosis; assay: Antimycobacterial activity against Mycobacterium tuberculosis H37Rv strain assessed as bacterial growth inhibition incubated for 48 hrs by Microplate amar blue assay; type: functional
# [11] = test system: HepG2; assay: Anticancer activity against human HepG2 assessed as IL-6 induced luciferase activity at 50 uM relative to control; type: functional
# [12] = test system: TF-1; assay: Anticancer activity against human TF-1 cells assessed as cell growth inhibition; type: functional, cell-based
# [13] = test system: HepG2; assay: Anticancer activity against human HepG2 assessed as IL-6 induced luciferase activity; type: functional, cell-based
# [14] = test system: Mycobacterium tuberculosis; assay: Antimycobacterial activity against Mycobacterium tuberculosis assessed as bacterial growth inhibition; type: functional
# [15] = test system: Enterococcus faecium; assay: Antibacterial activity against Linezolid resistant Enterococcus faecium assessed as bacterial growth inhibition incubated for 24 hrs; type: functional
# [16] = test system: Staphylococcus aureus; assay: Antibacterial activity against Staphylococcus aureus assessed as bacterial growth inhibition incubated for 24 hrs; type: functional
# [17] = test system: Enterococcus faecalis; assay: Antibacterial activity against Linezolid resistant Enterococcus faecalis assessed as bacterial growth inhibition incubated for 24 hrs; type: functional
# [18] = AUClast in Sprague-Dawley rat at 15 mg/kg, iv by HPLCLC-MS/MS analysis; type: ADME, organism-based; design: dose 15 mg/kg, route iv; settings: in vivo
# [19] = Inhibition of human LTB4
# [20] = Inhibition of human LTC4
# [21] = test system: Metaphire posthuma; assay: Anti-helmintic activity at Metaphire posthuma assessed as time of survival; type: functional
# [22] = test system: Metaphire posthuma; assay: Anti-helmintic activity at Metaphire posthuma assessed as paralysis induction time; type: functional
# [23] = molecular target: Kallikrein-6 (Homo sapiens, UniProt Q92876); assay: Inhibition of KLK6 (unknown origin)
# [24] = molecular target: Aldo-keto reductase family 1 member B1 (Homo sapiens, UniProt P15121); assay: Inhibition of […] (unknown origin)
# [25] = molecular target: T1, Acyl-CoA (8-3)-desaturase (Homo sapiens, UniProt O60427); assay: Inhibition of human Delta 5 desaturase (unknown origin) expressed in human HepG2 cells; type: cell-based
# Target sequence in this assay (O60427 whole entry): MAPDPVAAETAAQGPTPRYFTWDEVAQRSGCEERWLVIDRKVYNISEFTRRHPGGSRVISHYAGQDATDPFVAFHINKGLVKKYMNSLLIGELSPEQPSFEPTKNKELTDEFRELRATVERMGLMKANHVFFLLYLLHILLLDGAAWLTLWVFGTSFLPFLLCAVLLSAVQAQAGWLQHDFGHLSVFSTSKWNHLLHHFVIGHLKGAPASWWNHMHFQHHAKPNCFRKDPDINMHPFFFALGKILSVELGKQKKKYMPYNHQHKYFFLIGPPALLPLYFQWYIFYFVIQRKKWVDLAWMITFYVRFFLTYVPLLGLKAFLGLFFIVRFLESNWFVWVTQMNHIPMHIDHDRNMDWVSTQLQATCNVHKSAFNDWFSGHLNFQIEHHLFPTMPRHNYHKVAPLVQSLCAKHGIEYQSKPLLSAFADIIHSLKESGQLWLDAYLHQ
# [26] = molecular target: T1, Acyl-CoA (8-3)-desaturase; assay: In vivo inhibition of human Delta 5 desaturase in C57BL/6J mouse at 3 mg/kg, po relative to control; type: organism-based
# Target sequence in this assay (O60427 whole entry, looked up): as the sequence (O60427 whole entry) above
# [27] = molecular target: T1, Acyl-CoA (8-3)-desaturase; assay: In vivo inhibition of human Delta 5 desaturase in atherosclerosis mouse model at 3 mg/kg, po relative to control; type: organism-based
# Target sequence in this assay (O60427 whole entry, looked up): as the sequence (O60427 whole entry) above
# [28] = test system: Clostridioides difficile; assay: In vivo Antibacterial activity against Clostridium difficile infected in hamster assessed as survival at 50 mg/kg, sc relative to control; type: functional
# [29] = test system: Clostridioides difficile; assay: Antibacterial activity against Clostridium difficile ATCC 43255 strain assessed as bacterial growth inhibition incubated for 48 hrs by agar dilution method; type: functional
# [30] = test system: Clostridioides difficile; assay: Antibacterial activity against Clostridium difficile 2004118 strain assessed as bacterial growth inhibition incubated for 48 hrs by agar dilution method; type: functional
# [31] = test system: Clostridioides difficile; assay: Antibacterial activity against Clostridium difficile ATCC 43596 strain assessed as bacterial growth inhibition incubated for 48 hrs by agar dilution method; type: functional
# [32] = test system: Clostridioides difficile; assay: Antibacterial activity against Clostridium difficile NAP1/027/BI-type strain 2009155 assessed as bacterial growth inhibition incubated for 48 hrs by agar dilution method; type: functional
# [33] = test system: Clostridioides difficile; assay: Antibacterial activity against Clostridium difficile NCTC 11223 strain assessed as bacterial growth inhibition incubated for 48 hrs by agar dilution method; type: functional
# [34] = molecular target: Carbonic anhydrase 2 (Homo sapiens, UniProt P00918); assay: Inhibition of human CA2
# [35] = molecular target: Alpha glucosidase (Homo sapiens, UniProt O43451+P10253+P14410+Q2M2H8); assay: Inhibition of human alpha glucosidase; type: protein assay
# [36] = molecular target: Carbonic anhydrase 1 (Homo sapiens, UniProt P00915); assay: Inhibition of human CA1
# [37] = molecular target: Acetylcholinesterase (Homo sapiens, UniProt P22303); assay: Inhibition of human AchE
# [38] = species on record: Mus musculus; assay: Anticonvulsant activity in mouse; type: functional
# [39] = Toxicity in mouse; type: organism-based; settings: in vivo
# [40] = species on record: Rattus norvegicus; assay: Anticonvulsant activity in rat; type: functional
# [41] = test system: Mycobacterium kansasii; assay: Antibacterial activity against Mycobacterium kansasii assessed as bacterial growth inhibition; type: functional
# [42] = test system: Mycobacteroides chelonae; assay: Antibacterial activity against Mycobacteroides chelonae assessed as bacterial growth inhibition; type: functional
# [43] = test system: Mycolicibacterium fortuitum; assay: Antibacterial activity against Mycobacterium fortuitum assessed as bacterial growth inhibition; type: functional
# [44] = Metabolic stability in mouse microsomes assessed as half life; type: ADME, Microsome
# [45] = Metabolic stability in human microsomes assessed as intrinsic clearance; type: ADME, Microsome
# [46] = Metabolic stability in human microsomes assessed as half life; type: ADME, Microsome
# [47] = Metabolic stability in mouse microsomes assessed as intrinsic clearance; type: ADME, Microsome
# [48] = test system: HEK293; assay: Anticancer activity against HEK293 cells assessed as cell growth inhibition incubated for 48 hrs by MTT assay; type: functional, cell-based; settings: Homo sapiens, HEK293, 48 h
# [49] = test system: Staphylococcus aureus; assay: Antibacterial activity against methicillin sensitive Staphylococcus aureus assessed as bacterial growth inhibition incubated for 18 hrs; type: functional
# [50] = test system: L02; assay: Anticancer activity against human L02 cells assessed as cell growth inhibition incubated for 48 hrs by MTT assay; type: functional, cell-based; settings: L02, 48 h
# [51] = test system: Staphylococcus aureus; assay: Antibacterial activity against methicillin resistant Staphylococcus aureus assessed as bacterial growth inhibition incubated for 18 hrs; type: functional
# Chain of Acetylcholinesterase (P22303 whole entry): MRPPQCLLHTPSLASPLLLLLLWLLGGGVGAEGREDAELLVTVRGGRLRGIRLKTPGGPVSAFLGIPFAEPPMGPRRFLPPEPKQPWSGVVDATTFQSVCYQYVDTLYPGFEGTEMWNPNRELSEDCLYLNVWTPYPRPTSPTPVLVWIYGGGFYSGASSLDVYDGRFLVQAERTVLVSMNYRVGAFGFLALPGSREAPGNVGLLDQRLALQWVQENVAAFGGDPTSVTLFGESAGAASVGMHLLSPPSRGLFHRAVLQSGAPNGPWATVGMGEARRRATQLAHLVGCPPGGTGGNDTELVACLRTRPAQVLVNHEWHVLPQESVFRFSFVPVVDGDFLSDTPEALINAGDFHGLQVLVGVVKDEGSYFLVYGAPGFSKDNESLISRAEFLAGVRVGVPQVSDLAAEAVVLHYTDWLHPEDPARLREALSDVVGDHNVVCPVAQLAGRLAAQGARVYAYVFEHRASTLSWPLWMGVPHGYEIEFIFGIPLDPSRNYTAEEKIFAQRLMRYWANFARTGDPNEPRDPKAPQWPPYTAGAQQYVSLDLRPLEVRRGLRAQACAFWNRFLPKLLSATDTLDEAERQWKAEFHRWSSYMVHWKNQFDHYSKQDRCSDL
# Chain of Carbonic anhydrase 1 (P00915 whole entry): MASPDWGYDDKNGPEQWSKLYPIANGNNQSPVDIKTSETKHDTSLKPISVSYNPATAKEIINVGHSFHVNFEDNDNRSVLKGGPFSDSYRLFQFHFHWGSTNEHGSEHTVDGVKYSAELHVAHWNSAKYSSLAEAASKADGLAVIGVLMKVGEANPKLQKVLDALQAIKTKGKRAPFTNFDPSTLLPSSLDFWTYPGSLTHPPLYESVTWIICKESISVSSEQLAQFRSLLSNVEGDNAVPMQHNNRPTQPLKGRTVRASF
compound,measurement,setting,value
CC(=O)NC[C@H]1CN(c2ccc(N3C[C@H]4C[C@@H](O)C[C@H]4C3)c(F)c2)C(=O)O1,MIC90,[1],0.6 µM
CCN(CC)C(=O)/C=C1/OC(=O)N(Cc2ccccc2)C1(C)C,IC50,[2],17.7 µM
same,IC50,[3],31.1 µM
CC(C)c1ccc2c(c1)CCC1[C@](C)(C(=O)OCC3CN(c4ccc(F)cc4)C(=O)O3)CCC[C@]21C (some centres undefined),IC50,[4],3.82 µM
same,IC50,[5],3.82 µM
same,IC50,[6],3.82 µM
same,IC50,[7],3.82 µM
same,IC50,[8],> 100 µM
O=C(NCC(=O)N1CCN(c2ccc(N3C[C@H](Cn4ccnn4)OC3=O)cc2F)CC1)c1ccc([N+](=O)[O-])o1,MIC90,[9],0.9 µM
O=C1O[C@@H](Cn2ccnn2)CN1c1ccc(N2CCOCC2)c(F)c1,MIC90,[10],1.3 µM
C=C(CCCCC)[C@@H](O)[C@H](C)C(=O)N1C(=O)OC[C@@H]1C(C)C,inhibition at 50 µM,[11],90%
same,IC50,[12],7.5 µM
same,IC50,[13],5.9 µM
CC(=O)NC[C@H]1CN(c2ccc(-c3ccc(-c4csc(N)n4)cc3)c(F)c2)C(=O)O1,MIC90,[14],0.9 µM
O=C(CO)N1CCN(c2ccc(-c3ccc(N4C[C@H](Cn5ccnn5)OC4=O)cc3F)cn2)C=N1,MIC,[15],< 2 µg/mL
same,MIC,[16],< 2 µg/mL
same,MIC,[17],< 2 µg/mL
same,AUClast,[18],85 mg/h/L
CCCCCCC(=O)N(O)C[C@H]1CN(c2ccc(N3CCOCC3)c(F)c2)C(=O)O1,IC50,[19],0.7 µM
same,IC50,[20],0.9 µM
O=C(COP(=O)(O)O)N1CCN(c2ccc(-c3ccc(N4C[C@H](Cn5ccnn5)OC4=O)cc3F)cn2)C=N1,AUClast,[18],5.08 mg/h/L
O=C(OC[C@H]1CN(c2ccc(N3CCOCC3)nc2)C(=O)O1)C1CCCCC1,Survival,[21],8.1 min
same,Time,[22],3.6 min
O=C1CC2CN(c3ccc(N4C[C@H](Cn5ccnn5)OC4=O)cc3F)CC2C1 (some centres undefined),MIC90,[1],1.2 µM
COc1ccccc1-c1ccc([C@H](C)Nc2cncc(N3C(=O)OC[C@@H]3C(C)C)n2)cc1,IC50,[23],0.00251 µM
COc1ccc(C2CC3(CN(CC(=O)O)C(=O)O3)c3cc(Br)ccc3O2)cc1 (centres undefined),IC50,[24],0.65 µM
COc1cc(COc2ccccc2C2(C)CN(CC(=O)O)C(=O)O2)cc(OC)c1OC (centres undefined),IC50,[24],3.19 µM
C[C@@H]1[C@@H](c2ccc(F)cc2)OC(=O)N1c1cc(C#N)cc(C#N)c1,IC50,[25],0.0015 µM
same,inhibition,[26],74%
same,inhibition,[27],66%
CC(=O)NC[C@H]1CN(c2ccc(-c3cnc(-n4cncn4)nc3)c(F)c2)C(=O)O1,survival at 50 mg/kg,[28],100%
same,MIC90,[29],0.25 µg/mL
same,MIC90,[30],0.25 µg/mL
same,MIC90,[31],0.25 µg/mL
same,MIC90,[32],0.25 µg/mL
same,MIC90,[33],0.25 µg/mL
CC1(C)O[C@@H]2[C@@H](O)[C@H]3NC(=O)O[C@H]3C[C@@H]2O1,IC50,[34],24.8 µM
same,IC50,[35],30.5 µM
same,IC50,[36],45.6 µM
same,IC50,[37],58.7 µM
O=C(NCC(=O)N1CCN(c2ccc(N3C[C@H](Cn4ccnn4)OC3=O)cc2F)CC1)c1cccs1,ED50,[38],90 mg/kg
same,TD50,[39],> 500 mg/kg
same,ED50,[40],34.5 mg/kg
CC(=O)NC[C@H]1CN(c2ccc(N3CCN(c4ccc5nccn5n4)CC3)c(F)c2)C(=O)O1,MIC90,[41],1 µM
same,MIC90,[42],8 µM
same,MIC90,[43],8 µM
same,MIC90,[14],1.1 µM
Cc1ncc([N+](=O)[O-])n1CCO [METRONIDAZOLE],survival at 50 mg/kg,[28],0%
CC[C@H](NC(=O)[C@H]1CN(c2ccc(C(=N)N)cc2)C(=O)O1)c1cccc2ccccc12,half-life,[44],> 3 h
same,CLH,[45],3.1 mL/min/g
same,half-life,[46],> 3 h
same,CLH,[47],2.4 mL/min/g
CCOc1nc(-c2ccc(N3C[C@H](CNC(C)=O)OC3=O)cc2F)cs1,MIC90,[14],2.6 µM
CC(C)C[C@@H](NC(=O)OC1c2ccccc2-c2ccccc21)C(=O)N[C@@H](Cc1ccccc1)[C@H]1CN(c2ccc(N3CCOCC3)c(F)c2)C(=O)O1,MIC90,[14],2.6 µM
CC(=O)NC[C@H]1CN(c2ccc(-n3cc(-c4ccccn4)cn3)c(F)c2)C(=O)O1,IC50,[48],> 25 µM
same,MIC,[49],1 µg/mL
same,IC50,[50],50 µM
same,MIC,[51],0.5 µg/mL
CN[C@H](CC(C)C)C(=O)N[C@H]1C(=O)N[C@@H](CC(N)=O)C(=O)N[C@H]2C(=O)N[C@H]3C(=O)N[C@H](C(=O)N[C@H](C(=O)O)c4cc(O)cc(O)c4-c4cc3ccc4O)[C@H](O)c3ccc(c(Cl)c3)Oc3cc2cc(c3O[C@@H]2O[C@H](CO)[C@@H](O)[C@H](O)[C@H]2O[C@H]2C[C@](C)(N)[C@H](O)[C@H](C)O2)Oc2ccc(cc2Cl)[C@H]1O [VANCOMYCIN],survival at 50 mg/kg,[28],50%
